Results published in patent US8445207B2, “Genes based on thalidomide, valproic acid and methotrexate treatment for screening of drug inducing teratogenicity and screening method using thereof” (priority 2009, dated 2013).

Test system: JEG-3 (human placental choriocarcinoma cell line)
Assay: Oligo microarray gene expression in drug-treated JEG-3 (Cy5 treated / Cy3 control)
Format: cell-based
Method: Thalidomide, valproic acid, and methotrexate were treated to human placental choriocarcinoma cell line at the concentrations determined above (Inhibition concentration: the concentration that can kill approximately 30% of the total cells, that is the concentration of 70% viability, IC30). mRNA was extracted from the drug treated cell line, followed by synthesis of cDNA which was labeled with Cy5. The non-treated control was labeled with Cy3. The fluorescence labeled cDNA was hybridized with 41K (thalidomide), 44K (valproic acid, methotrexate) human whole genome oligomicroarray chips (Agilent, USA), followed by fluorescent image scanning to analyze gene expression patterns (see FIG. 4). Volcano Plot of each substance was also attached. Y axis indicates probability (generally converted by −log 10). X axis indicates differential expression, which is presented by log-ratio.
Total RNA was separated from the treated cell by using trizol reagent (Invitrogen Life Technologies, USA) according to the manufacture's instructions, followed by purification using RNeasy mini kit (Qiagen, USA). Genomic DNA was eliminated during RNA purification using RNase-free DNase set (Qiagen, USA).
30 μg of the total RNA obtained above and 2 μg (1 μg/μl) of oligo (dT) primer were mixed, followed by reaction at 65° C. for 10 minutes. Annealing was performed in ice right after the reaction. Reagents were prepared as shown in Table 1 for reverse transcription of the annealed RNA.
The total RNA separated from the control group JEG-3 cells was labeled with Cy3-dUTP (green) and the total RNA separated from the experiment group JEG-3 cells treated with thalidomide, valproic acid and methotrexate was labeled with Cy5-dUTP (red). At this time, the two samples were mixed and purified by Microcon YM-30 column (Millipore, USA).
Hybridization and washing were performed by the manufacturer's (GenoCheck, Korea) instructions. Particularly, hybridization was performed in a 62° C. oven for 12 hours. As a DNA microarray chip, 44 k whole human genome oligo microarray (Agilent, USA) was used. After washing (2 minutes with 2×SSC/0.1% SDS, three minutes with 1×SSC, 2 minutes with 0.2×SSC), the slide was dried by centrifugation at 800 rpm for 3 minutes.
Hybridization image on the slide was scanned with Genepix 4000B (Axon Instruments, USA). Fluorescence image of the chip on which non-hybridized genes had been washed out was obtained by using laser fluorescence scanner. Green fluorescence image indicates the activity of gene specifically expressed in the control group and red fluorescence image indicates the activity of gene specifically expressed in the experimental group. […] Scanned image was analyzed by using GenePix 4.1 software (Axon Instruments, USA) to calculate gene expression rate.

[1] = out of 21797 (thalidomide), 21921 (valproic acid), 24006 (methotrexate) genes
[2] = treated at IC30, up-regulated gene, (k) common gene which has no function

## CN(Cc1cnc2nc(N)nc(N)c2n1)c1ccc(C(=O)N[C@@H](CCC(=O)O)C(=O)O)cc1 [MTX, methotrexate]
GenBank AB002308
  cDNA microarray (Cy3/Cy5 ratio), KIAA0310: 2.29
GenBank AB018258
  cDNA microarray (Cy3/Cy5 ratio), ATP10B: 4.95
GenBank AB209845
  cDNA microarray (Cy3/Cy5 ratio), TTF2: 1.94
GenBank AF001893
  cDNA microarray (Cy3/Cy5 ratio), TncRNA: 2.11
GenBank AK001879
  cDNA microarray (Cy3/Cy5 ratio), C4orf19: 4.69
GenBank AK023571
  cDNA microarray (Cy3/Cy5 ratio), CYP19A1: 2.72
GenBank AK023574
  cDNA microarray (Cy3/Cy5 ratio), SLC40A1: 3.06
GenBank AK095632
  cDNA microarray (Cy3/Cy5 ratio), ABTB2: 4.65
GenBank AK122757
  cDNA microarray (Cy3/Cy5 ratio), TUBB3: 7.85
GenBank AK125877
  cDNA microarray (Cy3/Cy5 ratio), MGC27016: 1.52
GenBank AK126731
  cDNA microarray (Cy3/Cy5 ratio), GLCCI1: 2.84
GenBank BC036890
  cDNA microarray (Cy3/Cy5 ratio), TFCP2L4: 4.11
GenBank BC042755
  cDNA microarray (Cy3/Cy5 ratio), RGS2: 9.24
GenBank BC063830
  cDNA microarray (Cy3/Cy5 ratio), SIAT7A: 15.01
GenBank BX648021
  cDNA microarray (Cy3/Cy5 ratio), B7-H4: 0.27
GenBank BX649112
  cDNA microarray (Cy3/Cy5 ratio), COBLL1: 4.89
GenBank NM_000735
  cDNA microarray (Cy3/Cy5 ratio), CGA: 8.07
GenBank NM_001618
  cDNA microarray (Cy3/Cy5 ratio), PARP1: 0.6
GenBank NM_004155
  cDNA microarray (Cy3/Cy5 ratio), SERPINB9: 4.04
GenBank NM_005668
  cDNA microarray (Cy3/Cy5 ratio), ST8SIA4: 1.82
GenBank NM_007313
  cDNA microarray (Cy5 treated / Cy3 control ratio), ABL1: 0.49
GenBank NM_024342
  cDNA microarray (Cy3/Cy5 ratio), GRLF1: 0.29
GenBank NM_032484
  cDNA microarray (Cy3/Cy5 ratio), LGP1: 0.49
GenBank NM_181659
  cDNA microarray (Cy3/Cy5 ratio), NCOA3: 2.12
GenBank XM_031553
  cDNA microarray (Cy3/Cy5 ratio), SR140: 0.66
GenBank Y18483
  cDNA microarray (Cy3/Cy5 ratio), SLC7A8: 3.76
Genbank AB028993, drug at IC30
  Ratio of intermediate value, NLGN1: 0.25
Genbank AB067472, drug at IC30
  Ratio of intermediate value, VARS2L: 0.46
Genbank AB209246, drug at IC30
  Ratio of intermediate value, PPAT: 0.44
Genbank AB209322, drug at IC30
  Ratio of intermediate value, SEMA3B: 0.48
Genbank AB209458, drug at IC30
  Ratio of intermediate value, SCLY: 0.41
Genbank AF061326, drug at IC30
  Ratio of intermediate value, C8orf1: 0.46
Genbank AF078164, drug at IC30
  Ratio of intermediate value, KUB3: 0.45
Genbank AF078847, drug at IC30
  Ratio of intermediate value, GTF2H2: 0.44
Genbank AF196185, drug at IC30
  Ratio of intermediate value, PARD3: 0.28
Genbank AK022713, drug at IC30
  Ratio of intermediate value, Homo sapiens cDNA FLJ12651 fis, clone NT2RM4002062: 0.21
Genbank AK023909, NM_001190, drug at IC30
  Ratio of intermediate value, BCAT2: 0.35
Genbank AK027126, drug at IC30
  Ratio of intermediate value, ASS: 0.19
Genbank AK055053, drug at IC30
  Ratio of intermediate value, SHMT2: 0.42
Genbank AK056980, drug at IC30
  Ratio of intermediate value, FLJ23441: 0.41
Genbank AK057498, drug at IC30
  Ratio of intermediate value, RUVBL2: 0.42
Genbank AK092872, drug at IC30
  Ratio of intermediate value, ERCC2: 0.40
Genbank AK093306, drug at IC30
  Ratio of intermediate value, PHGDH: 0.16
Genbank AK122685, drug at IC30
  Ratio of intermediate value, GLUD1: 0.34
Genbank AK122825, drug at IC30
  Ratio of intermediate value, HMGB1: 0.37
Genbank AK125213, drug at IC30
  Ratio of intermediate value, YARS: 0.38
Genbank BC005077, NM_022725, drug at IC30
  Ratio of intermediate value, FANCF: 0.40
Genbank BC036421, drug at IC30
  Ratio of intermediate value, C9orf103: 0.38
Genbank BC065510, drug at IC30
  Ratio of intermediate value, CAD: 0.40
Genbank BI494022, NM_024342, drug at IC30
  Ratio of intermediate value, GRLF1: 0.29
Genbank BM467105, drug at IC30
  Ratio of intermediate value, CIB1: 0.44
Genbank BX248766, drug at IC30
  Ratio of intermediate value, RAD51L1: 0.43
Genbank BX640816, drug at IC30
  Ratio of intermediate value, NBS1: 0.31
Genbank BX648021, drug at IC30
  Ratio of intermediate value, B7-H4: 0.27
Genbank CR611116, drug at IC30
  Ratio of intermediate value, APEX1: 0.33
Genbank CR936770, drug at IC30
  Ratio of intermediate value, GNAO1: 0.49
Genbank D42045, drug at IC30
  Ratio of intermediate value, DCLRE1A: 0.43
Genbank L00972, drug at IC30
  Ratio of intermediate value, CBS: 0.47
Genbank NM_000051, drug at IC30
  Ratio of intermediate value, ATM: 0.48
Genbank NM_000216, drug at IC30
  Ratio of intermediate value, KAL1: 0.43
Genbank NM_000304, drug at IC30
  Ratio of intermediate value, PMP22: 0.43
Genbank NM_001184, drug at IC30
  Ratio of intermediate value, ATR: 0.41
Genbank NM_001618, drug at IC30
  Ratio of intermediate value, PARP1: 0.60
Genbank NM_001698, drug at IC30
  Ratio of intermediate value, AUH: 0.39
Genbank NM_001801, drug at IC30
  Ratio of intermediate value, CDO1: 0.45
Genbank NM_002412, drug at IC30
  Ratio of intermediate value, MGMT: 0.48
Genbank NM_002528, drug at IC30
  Ratio of intermediate value, NTHL1: 0.42
Genbank NM_003362, drug at IC30
  Ratio of intermediate value, UNG: 0.41
Genbank NM_004280, drug at IC30
  Ratio of intermediate value, EEF1E1: 0.46
Genbank NM_005103, drug at IC30
  Ratio of intermediate value, FEZ1: 0.43
Genbank NM_005504, drug at IC30
  Ratio of intermediate value, BCAT1: 0.12
Genbank NM_005881, drug at IC30
  Ratio of intermediate value, BCKDK: 0.48
Genbank NM_006230, drug at IC30
  Ratio of intermediate value, POLD2: 0.29
Genbank NM_006567, drug at IC30
  Ratio of intermediate value, FARS2: 0.46
Genbank NM_007215, drug at IC30
  Ratio of intermediate value, POLG2: 0.45
Genbank NM_007313, drug at IC30
  Ratio of intermediate value, ABL1: 0.49
Genbank NM_013975, drug at IC30
  Ratio of intermediate value, LIG3: 0.49
Genbank NM_015936, drug at IC30
  Ratio of intermediate value, CGI-04: 0.47
Genbank NM_016835, drug at IC30
  Ratio of intermediate value, MAPT: 0.38
Genbank NM_018122, drug at IC30
  Ratio of intermediate value, FLJ10514: 0.38
Genbank NM_032484, drug at IC30
  Ratio of intermediate value, LGP1: 0.49
Genbank NM_058179, drug at IC30
  Ratio of intermediate value, PSAT1: 0.31
Genbank NM_080820, drug at IC30
  Ratio of intermediate value, HARS2: 0.26
Genbank NM_080881, drug at IC30
  Ratio of intermediate value, DBN1: 0.44
Genbank NM_133436, drug at IC30
  Ratio of intermediate value, ASNS: 0.33
Genbank NM_133631, drug at IC30
  Ratio of intermediate value, ROBO1: 0.39
Genbank NM_152334, drug at IC30
  Ratio of intermediate value, TARSL2: 0.36
Genbank NM_175607, drug at IC30
  Ratio of intermediate value, CNTN4: 0.31
Genbank NM_001007233, drug at IC30
  Ratio of intermediate value, ERCC8: 0.41
Genbank U63139, drug at IC30
  Ratio of intermediate value, RAD50: 0.36
Genbank X59303, drug at IC30
  Ratio of intermediate value, VARS2: 0.33
Genbank XM_031553, drug at IC30
  Ratio of intermediate value, SR140: 0.66
Genbank XM_371677, drug at IC30
  Ratio of intermediate value, LOC389173: 0.27
JEG-3, drug at IC30, 48 hours
  genes down-regulated (ratio of intermediate value less than 0.666): 6.28%
  genes up-regulated (ratio of intermediate value more than 1.5): 9.5%
[1]
  number of genes down-regulated: 1508
  number of genes up-regulated: 2149
[2]
  Ratio of intermediate value, gene ATP10B (AB018258, ATPase, Class V, type 10B): 4.95
  Ratio of intermediate value, gene BQ186674 (cDNA clone UI-E-EJ1-ajr-f-10-0-UI, Hypothetical gene supported by AF086204): 3.79
  Ratio of intermediate value, gene BX111592 (Transcribed locus, moderately similar to XP_066443.6 PREDICTED: similar to paraneoplastic antigen like 6A): 9.86
  Ratio of intermediate value, gene CGA (NM_000735, Glycoprotein hormones, alpha polypeptide): 8.07
  Ratio of intermediate value, gene COBLL1 (BX649112, COBL-like 1): 4.89
  Ratio of intermediate value, gene CYP19A1 (AK023571, Cytochrome P450, family 19, subfamily A, polypeptide 1): 2.72
  Ratio of intermediate value, gene FLJ11017 (AK001879, Hypothetical protein FLJ11017): 4.69
  Ratio of intermediate value, gene GLCCI1 (AK126731, Glucocorticoid induced transcript 1): 2.84
  Ratio of intermediate value, gene KIAA0310 (AB002308, KIAA0310): 2.29
  Ratio of intermediate value, gene MGC27016 (AK125877, Hypothetical protein MGC27016): 1.52
  Ratio of intermediate value, gene NCOA3 (NM_181659, Nuclear receptor coactivator 3): 2.12
  Ratio of intermediate value, gene RGS2 (BC042755, Regulator of G-protein signalling 2, 24 kDa): 9.24
  Ratio of intermediate value, gene SIAT7A (BC063830, ST6 (alpha-N-acetyl-neuraminyl-2,3-beta-galactosyl-1,3)-N-acetylgalactosaminide alpha-2,6-sialyltransferase 1): 15.01
  Ratio of intermediate value, gene SIAT8D (NM_005668, ST8 alpha-N-acetyl-neuraminide alpha-2,8-sialyltransferase 4): 1.82
  Ratio of intermediate value, gene SLC7A8 (Y18483, Solute carrier family 7 (cationic amino acid transporter, y+ system), member 8): 3.76
  Ratio of intermediate value, gene SLC40A1 (AK023574, Solute carrier family 40 (iron-regulated transporter), member 1): 3.06
  Ratio of intermediate value, gene TFCP2L4 (BC036890, Grainyhead-like 3 (Drosophila)): 4.11
  Ratio of intermediate value, gene TTF2 (AB209845, Transcription termination factor, RNA polymerase II): 1.94
  Ratio of intermediate value, gene TUBB3 (AK122757, Tubulin, beta 3): 7.85
  Ratio of intermediate value, gene TncRNA (AF001893, Trophoblast-derived noncoding RNA): 2.11
